Results taken from patent US9757428B2, “Designed peptides for tight junction barrier modulation” (University of Rochester, priority 2013, dated 2017).
Where no end group is shown, it is not given here.

How the values were obtained:
16HBE TJs [1] = assay: Transepithelial electrical resistance (TER) of 16HBE tight junction barrier, peptides applied apically; format: cell-based, Human; settings: for barrier disruption by labeled peptides, measured by decreased TER: representative experiment (n=2); for effect of unrelated peptides on TER: 2-12 μM; for drop in TER: 2.4 μM peptide; for recovery of barrier function (TER) after peptide removal: 0.024 to 12 μM, washout and further 24 h incubation
Experimental: Before use, peptide fibrils were prepared in sterile, filtered phosphate buffered saline containing 0.12% Pluronic F-127® by sonication at 55° C. for 20 minutes. Peptide concentrations were determined by BCA assay (Pierce). 20× peptide stocks were prepared in 0.12% pluronic F-127/PBS, then diluted 20× into phosphate buffer, PBS or DMEM containing 1% heat-inactivated fetal bovine serum and incubated at 37° C. for 18-24 hours before cell exposure or biophysical analysis, maintaining a constant surfactant concentration (0.006% Pluoronic® F127) for vehicle and peptide samples.
(§1) Human bronchial epithelial cells (16HBE) were grown on collagen-coated polystyrene in DMEM containing 10% heat inactivated fetal bovine serum, 10 mM HEPES, penicillin, streptomycin, and amphotericin with fresh media every 2-3 days. Cells were plated at the indicated density and grown for the indicated period. Peptides were diluted 20× into DMEM (Gibco #31053 containing 2 mM L-glutamine but lacking phenol red) containing 1% heat-inactivated fetal bovine serum and incubated at 37° C. for 18 hours before exposure. Pluronic F-127 concentrations (0.006% in cell culture media) were consistent between vehicle controls and peptide-containing samples. Cells were acclimated to the same media for 18 hours before peptide exposure.
(§2) For transepithelial electrical resistance (TER) and permeability experiments, the results of which are shown in FIGS. 4A-4B, respectively, cells were plated at a density of 75,000 per 0.33 cm^2 transwell (Corning TW, […], polyester) and grown for 5-6 days before acclimation/peptide exposure. TER measurements were taken with chopstick electrodes using a World Precision Instruments voltohmeter, and are expressed as the measured (cellular resistance—resistance of a TW insert with no cells)/surface area of the TW insert. TER was measured before peptide exposure (time=0) and at the indicated time points thereafter. After the 24 hour measurement, a control TW was lysed with 1% Triton X-100. For permeability flux assay, 1/10 volume of 0.2% sodium fluorescein or a mixture of 40 kD FITC-dextran (600 μg/mL final apical concentration) and Alexafluor®-568 labeled Synagis monoclonal antibody was added to the apical chamber and cells were incubated at 37° C. for 30 minutes or 18 hours. Synagis monoclonal antibody was labeled with Alexafluor®-568-succinimidyl ester according to the manufacturer's instructions, unreacted fluorophor removed using centrifugal filtration, and labeled antibody resuspended in PBS containing FITC-labeled 40 kD dextran. Fluorescence in the basolateral media was read in a Tecan M1000 fluorescence plate reader using Greiner μ-clear bottom 384-well plates (λex=494 nm and λem=512 nm for fluorescein and FITC-dextran and λex=578 nm and λem=605 nm for Alexafluor®-568 using a 10 nm slit width). Error is presented as the standard error of the mean, and significance relative to the vehicle control indicated where P<0.05 using a two-tailed t-test. For TER and fluorescein permeability experiments, n=8. For barrier recovery after peptide washout and FD-40 and Alexafluor®-labeled monoclonal antibody (“AF-mAb”) permeability, n=4.
Human bronchial epithelial cells (16HBE) were used to model TJ barrier function. 16HBE cells develop a TJ barrier (transepithelial electrical resistance, TER=800-1500 Ω*cm^2 in 10% heat-inactivated calf serum) that persists for 14 days. 16HBE cells serve as a more robust epithelial TJ barrier model than primary human keratinocytes, which achieve varying degrees of terminal differentiation (e.g. TJ barrier function) and this declines within 24 hours. In the low serum media used for peptide exposure, 16HBE cells achieved 350-500 Ω*cm^2 TER which was stable for 3-4 days. Cell surface expression of Cldn1, Cldn4, Ocln, and ZO-1 were consistently observed by immunofluorescence staining (FIGS. 2A-2B).

[2] = system: Cldn1 and Ocln localization in 16HBE cultures; assay: Immunofluorescence of TJ proteins (Cldn1, Ocln) and labeled peptides in 16HBE cultures; format: cell-based, Human; settings: for co-localization of labeled peptide with endogenous Cldn1: 2.4 μM, 4 hours exposure; for Cldn1 and Ocln localization: 12 hours after exposure
Experimental: For immunohistochemical labeling, cells were plated at a density of 1.2×10^5 cells per 1.2 cm^2 coverslip in a 12-well plate and cultured in DMEM containing 10% heat-inactivated fetal bovine serum for 4-5 days. One day before peptide exposure, media was changed to DMEM/1% serum. Cells were exposed to peptide for 4 or 12 hours at 37° C. Cover slips were washed three times with PBS containing calcium (Gibco), fixed in cold methanol and blocked with 1% bovine serum albumin before staining Fluorophor was conjugated to propargyl-glycine labeled peptides using a ClickIt EdU kit according to the manufacturer's instructions (omitting cell exposure to EdU). For immunofluorescent staining, cells were incubated for one hour with primary antibodies (1:500 polyclonal anti-claudin 1 antibody and 1:400 monoclonal anti-occludin), washed with PBS and stained with Alexafluor®-488 anti-rabbit and Alexafluor®-568 anti-mouse secondary antibodies (1:1000). […] Coverslips were mounted in Vectastain containing DAPI and imaged on an Olympus BX60 fluorescence microscope. Cldn1 and Ocln images were taken using SPOT software with no further digital manipulation.

[3] = for comparison; cited from earlier work
[4] = system: Caco-2, HEK-293, and rat perineural TJ barriers; settings: Caco-2, HEK-293, rat perineural in vivo; cited from earlier work
[5] = system: influenza hemagglutinin (HA); assay: Intranasal immunization with influenza hemagglutinin (HA); settings: mice; for serum antibody titers to HA: day 18, 28 and 35; for HA-specific antibodies (IgG and IgA) in bronchial lavage: day 48
Experimental: Immunization experiments with influenza hemagglutinin were carried out as follows. Mice (4 mice per group) were treated in the nasal cavity with vehicle alone (0.006% Pluronic F127 in saline), vehicle plus influenza hemagglutinin (HA), or vehicle plus HA plus a permeabilizing agent (peptides 1A or 2A, or semen-derived enhancer of virus infection (SEVI)). Antibody titers to HA in serum were assessed at day 18, 28, and 35 after treatment, and HA-specific IgG and IgA were determined in bronchial lavage at day 48 post treatment.

16HBE cells = assay: WST1 cytotoxicity assay in 16HBE cells; format: cell-based, Human; settings: for WST1 metabolism (cytotoxicity) of equilibrated peptides: 16HBE sub-confluent, 0.024-12 μM, 1, 4, 12 or 24 hour exposure; for concentration of freshly diluted peptide at which cytotoxicity was observed (WST1): 16HBE, stocks diluted and added without incubation, 12 h exposure
Experimental: For cytotoxicity measurements, cells were plated with a density of 7,500 per well in a 96-well plate and grown for one day before acclimation in DMEM containing 1% heat-inactivated fetal bovine serum. Cells were exposed to vehicle or peptide for 4, 12 or 24 hours. Control cells were lysed with 1% Triton X-100 for 15 minutes as a negative control. 10× WST1 stock (Clontech) was added to each well, and cells incubated for 12 minutes at 37° C. Media was removed and WST1 absorbance immediately read on a Perkin Elmer UV/Vis plate reader (WST1 A450−background A620). Error is presented as the standard error of the mean, and significance relative to the untreated control indicated (P<0.05). For cytotoxicity experiments, n=4. Representative data is presented.

16HBE TJs [6] = assay: Permeability flux assay (sodium fluorescein, FITC-dextran FD-40, labeled Synagis mAb) across 16HBE cultures; format: cell-based, Human; settings: for increase in FITC-dextran 40 kDa (FD-40) permeability / increase in fluorescein (0.4 kDa) permeability: 24 hours exposure, relative to vehicle
Experimental: as §1, §2

nasal cavity = assay: Luciferase permeability experiment in mouse nasal cavity; format: in vivo; settings: mice, intranasal peptide, luciferase applied after 12 or 24 hours
Experimental: Luciferase permeability experiments were carried out as follows. […] After 12 or 24 hours, a solution of 10 micrograms luciferase was applied. Mice were then imaged at various time points to determine the amount of luciferase remaining in the nasal cavity.

[7] = system: T84 (transplantable human carcinoma) cells; settings: cited from earlier work

SSVSQSTGQIQSKVFDSLLNLSSTLQATR [Peptide 1b, labeled peptide 1 with N-terminal biotin-N-propargyl glycine tag]
barrier disruption by labeled peptides, measured by decreased TER (16HBE TJs [1]; 16HBE): cause disruption of barrier | co-localization of labeled peptide with endogenous Cldn1 [2]: co-localize with endogenous Cldn1

Aβ42: Amyloid Beta-Peptide 1-42 [reference compound]
critical concentration (Cr) [3]: about 1 μM | TJ disruption (16HBE TJs [1]; 2.4 μM): disrupt TJs, but to a lesser extent than peptides 1a and 2a

Rat Cldn1 (53-81, C54,64S) peptide: rat claudin-1 peptide with Cys to Ser, of Zwanziger et al. (SSVSQSTGQIQSKVFDSLLNLNSTLQATR; UniProt P56745 53-81, looked up, variant C54S C64S)
concentration disrupting TJ barriers [4]: 200 to 300 µM

Aβ40: unrelated peptide tested in the same concentration range [reference compound]
effect of unrelated peptides on TER (16HBE TJs [1]; 16HBE): did not decrease TER

SILTGVSTLDQSLKQLSNFSQAVSTQSSR [Peptide 2b, labeled scrambled peptide 2 with N-terminal biotin-N-propargyl glycine tag]
barrier disruption by labeled peptides, measured by decreased TER (16HBE TJs [1]; 16HBE): cause disruption of barrier | co-localization of labeled peptide with endogenous Cldn1 [2]: co-localize with endogenous Cldn1

H-SSVSQSTGQIQSKVFDSLLNLSSTLQATR-NH2 [Peptide 1a]
serum antibody titers to HA [5]: trend of enhancement | HA-specific antibodies (IgG and IgA) in bronchial lavage [5]: trend of enhancement | WST1 metabolism (cytotoxicity) of equilibrated peptides (16HBE cells): No alterations in WST1 metabolism | concentration of freshly diluted peptide at which cytotoxicity was observed (WST1) (16HBE cells): 1200 nM | enhancement of labeled therapeutic antibody (Synagis, 168 kD) penetration (16HBE TJs [6]; 2.4 μM peptide): 2.5±0.2 fold | increase in FITC-dextran 40 kDa (FD-40) permeability (16HBE TJs [6]; 2.4 μM peptide): 11.2±0.9 fold | increase in fluorescein (0.4 kDa) permeability (16HBE TJs [6]; 2.4 μM peptide): 4.1±0.9 fold | enhancement of labeled therapeutic antibody (Synagis, 168 kD) penetration (16HBE TJs [6]; 12 μM peptide): 3.2±0.4 fold | increase in FITC-dextran 40 kDa (FD-40) permeability (16HBE TJs [6]; 12 μM peptide): 16.8±1.9 fold | increase in fluorescein (0.4 kDa) permeability (16HBE TJs [6]; 12 μM peptide): 6.7±1.3 fold | drop in TER (16HBE TJs [1]; 16HBE, 24 hours): 65.9±6.9% | time to statistically significant (P<0.05) decrease in TER (16HBE TJs [1]; 16HBE, 12 μM peptide): ≤ 8 h | recovery of barrier function (TER) after peptide removal (16HBE TJs [1]; 16HBE): barrier function recovers | lowest concentration giving a statistically significant (P<0.05) decrease in TER (16HBE TJs [1]; 16HBE, by 24 hours): 240 nM | luciferase lost from the nasal cavity (nasal cavity): trend of higher amounts of luciferase lost from the nasal cavity | Cldn1 and Ocln localization [2]: disturbed

rat Cldn1 (53-80) peptide: rat claudin-1 extracellular loop peptide of Mrsny et al. (SCVSQSTGQIQCKVFDSLLNLNSTLQAT; UniProt P56745 53-80, looked up, fragment)
concentration able to disrupt intact TJs [7]: 200 µM | concentration shown to inhibit calcium-induced TJ formation [7]: 25 µM

FKFEFKFE-NH2 [(FKFE)2, unrelated peptide tested in the same concentration range, reference compound]
effect of unrelated peptides on TER (16HBE TJs [1]; 16HBE): did not decrease TER

H-SILTGVSTLDQSLKQLSNFSQAVSTQSSR-NH2 [Peptide 2a]
serum antibody titers to HA [5]: trend of enhancement | HA-specific antibodies (IgG and IgA) in bronchial lavage [5]: trend of enhancement | WST1 metabolism (cytotoxicity) of equilibrated peptides (16HBE cells): No alterations in WST1 metabolism | concentration of freshly diluted peptide at which cytotoxicity was observed (WST1) (16HBE cells): 200 nM | enhancement of labeled therapeutic antibody (Synagis, 168 kD) penetration (16HBE TJs [6]; 2.4 μM peptide): 4.9±0.4 fold | increase in FITC-dextran 40 kDa (FD-40) permeability (16HBE TJs [6]; 2.4 μM peptide): 25.3±1.6 fold | increase in fluorescein (0.4 kDa) permeability (16HBE TJs [6]; 2.4 μM peptide): 5.6±0.4 fold | enhancement of labeled therapeutic antibody (Synagis, 168 kD) penetration (16HBE TJs [6]; 12 μM peptide): 5.6±0.9 fold | increase in FITC-dextran 40 kDa (FD-40) permeability (16HBE TJs [6]; 12 μM peptide): 30.5±3.0 fold | increase in fluorescein (0.4 kDa) permeability (16HBE TJs [6]; 12 μM peptide): 16.4±2.2 fold | drop in TER (16HBE TJs [1]; 16HBE, 24 hours): 80±2.4% | decrease in TER (16HBE TJs [1]; 16HBE, 12 μM peptide, 24 hours): 92±1.6% | recovery of barrier function (TER) after peptide removal (16HBE TJs [1]; 16HBE): barrier function recovers | Cldn1 and Ocln localization [2]: disturbed
